Experiment: Relative solubility by turbidity threshold concentration in aqueous buffers (pH 1.5, 4.5, 6.8, 7.4)
Format: physicochemical
Conditions: for turbidity threshold (L, M, H) 1.4: pH 1.4 [sic] (method: SGF pH 1.5); for turbidity threshold (L, M, H) 6.8: pH 6.8 (SIF); for turbidity threshold (L, M, H) 7.4: pH 7.4 (HEPES); for turbidity threshold (L, M, H) 4.5: pH 4.5 (SIF)
Protocol: As an indication of relative solubility, the turbidity of compounds in aqueous solutions is assessed. To assess possible compound properties in different physiological compartments, such as stomach, intestine, and blood, a series of aqueous buffers with varying pH is used. Thus each compound is diluted into four different physiologically relevant buffers and solution turbidity is measured by spectrophotometry.
Compounds are dissolved at a concentration of 25 mM in dimethyl sulfoxide, then serially diluted 1:1 into a 96 well plate, diluting 10 times in pure dimethyl sulfoxide, with the final well of each row a dimethyl sulfoxide blank. In an assay plate, 99 μL of appropriate buffer is added to each well, and 1 μL of each sample dilution is added to the buffer, achieving a range of final total concentrations in aqueous solutions having different pH. The buffers used are Simulated Gastric Fluid (SGF-pH 1.5) 0.5M NaCl, pH 1.5; Simulated Intestinal fluid (SIF-pH 4.5 and pH 6.8) 0.05M NaH2PO4, pH 4.5 and 6.8; and Hepes Buffer (HEPES-pH 7.4) 10 mM HEPES, 150 mM NaCl, pH 7.4. Control compounds pyrene, estriol and propranolol HCl are also assessed. Plates are spun and then mixed for 1 minute, and the absorbance is read using a Tecan Safire II to read wavelengths in the visible range (490, 535, and 650 nm) at four locations per well, reflecting the degree of turbidity present. The average optical density for each wavelength in each well is graphed vs. compound concentration, and the concentration at which the curve crosses a threshold O.D. of 0.01 for each wavelength is reported as the endpoint turbidity assay result. The average of the three wavelengths is used to compare turbidity of compounds. Compounds are considered to have low solubility if the threshold concentration is <31.3 μM, moderate solubility if the threshold concentration is 31.3 μM to 250 μM, and high solubility if the threshold concentration is >250 μm.
The following table indicates the relative solubility (L=low, M=moderate, H=high) based on turbidity threshold concentration at each pH for exemplary compounds according to the invention as indicated: […]

SMILES	turbidity threshold (L, M, H) 1.4	turbidity threshold (L, M, H) 6.8	turbidity threshold (L, M, H) 7.4	turbidity threshold (L, M, H) 4.5
CCCS(=O)(=O)Nc1ccc(F)c(C(=O)c2c[nH]c3ncnc(CC(C)C)c23)c1F [P-1014, Propane-1-sulfonic acid [2,4-difluoro-3-(4-isobutyl-7H-pyrrolo[2,3-d]pyrimidine-5-carbonyl)-phenyl]-amide]	M (moderate solubility if the threshold concentration is 31.3 μM to 250 μM)	M (moderate solubility if the threshold concentration is 31.3 μM to 250 μM)	M (moderate solubility if the threshold concentration is 31.3 μM to 250 μM)	–
CCCS(=O)(=O)Nc1ccc(F)c(C(=O)c2c[nH]c3ncnc(NC4CC4)c23)c1F [P-1041, Propane-1-sulfonic acid [3-(4-cyclopropylamino-7H-pyrrolo[2,3-d]pyrimidine-5-carbonyl)-2,4-difluoro-phenyl]-amide]	H (high solubility if the threshold concentration is >250 μm)	M (moderate solubility if the threshold concentration is 31.3 μM to 250 μM)	M (moderate solubility if the threshold concentration is 31.3 μM to 250 μM)	M (moderate solubility if the threshold concentration is 31.3 μM to 250 μM)
CCCS(=O)(=O)Nc1ccc(F)c(C(=O)c2c[nH]c3ncnc(NC(C)C)c23)c1F [P-1051, Propane-1-sulfonic acid [2,4-difluoro-3-(4-isopropylamino-7H-pyrrolo[2,3-d]pyrimidine-5-carbonyl)-phenyl]-amide]	H (high solubility if the threshold concentration is >250 μm)	M (moderate solubility if the threshold concentration is 31.3 μM to 250 μM)	M (moderate solubility if the threshold concentration is 31.3 μM to 250 μM)	M (moderate solubility if the threshold concentration is 31.3 μM to 250 μM)
CCCS(=O)(=O)Nc1ccc(F)c(C(=O)c2c[nH]c3ncnc(Nc4ccncc4)c23)c1F [P-1076, Propane-1-sulfonic acid {2,4-difluoro-3-[4-(pyridin-4-ylamino)-7H-pyrrolo[2,3-d]pyrimidine-5-carbonyl]-phenyl}-amide]	H (high solubility if the threshold concentration is >250 μm)	H (high solubility if the threshold concentration is >250 μm)	H (high solubility if the threshold concentration is >250 μm)	H (high solubility if the threshold concentration is >250 μm)
CCCS(=O)(=O)Nc1ccc(F)c(C(=O)c2c[nH]c3ncnc(Nc4cccc(Cl)c4)c23)c1F [P-1084, Propane-1-sulfonic acid {3-[4-(3-chloro-phenylamino)-7H-pyrrolo[2,3-d]pyrimidine-5-carbonyl]-2,4-difluoro-phenyl}-amide]	M (moderate solubility if the threshold concentration is 31.3 μM to 250 μM)	M (moderate solubility if the threshold concentration is 31.3 μM to 250 μM)	M (moderate solubility if the threshold concentration is 31.3 μM to 250 μM)	M (moderate solubility if the threshold concentration is 31.3 μM to 250 μM)
CCCS(=O)(=O)Nc1ccc(F)c(C(=O)c2c[nH]c3ncnc(Nc4cccc(OC)c4)c23)c1F [P-1085, Propane-1-sulfonic acid {2,4-difluoro-3-[4-(3-methoxy-phenylamino)-7H-pyrrolo[2,3-d]pyrimidine-5-carbonyl]-phenyl}-amide]	L (low solubility if the threshold concentration is <31.3 μM)	L (low solubility if the threshold concentration is <31.3 μM)	L (low solubility if the threshold concentration is <31.3 μM)	L (low solubility if the threshold concentration is <31.3 μM)
CCCS(=O)(=O)Nc1ccc(F)c(C(=O)c2c[nH]c3ncnc(Nc4ccc(Cl)cc4)c23)c1F [P-1087, Propane-1-sulfonic acid {3-[4-(4-chloro-phenylamino)-7H-pyrrolo[2,3-d]pyrimidine-5-carbonyl]-2,4-difluoro-phenyl}-amide]	M (moderate solubility if the threshold concentration is 31.3 μM to 250 μM)	M (moderate solubility if the threshold concentration is 31.3 μM to 250 μM)	M (moderate solubility if the threshold concentration is 31.3 μM to 250 μM)	L (low solubility if the threshold concentration is <31.3 μM)
CCCS(=O)(=O)Nc1ccc(F)c(C(=O)c2c[nH]c3ncnc(NCC(C)C)c23)c1F [P-1088, Propane-1-sulfonic acid [2,4-difluoro-3-(4-isobutylamino-7H-pyrrolo[2,3-d]pyrimidine-5-carbonyl)-phenyl]-amide]	M (moderate solubility if the threshold concentration is 31.3 μM to 250 μM)	L (low solubility if the threshold concentration is <31.3 μM)	L (low solubility if the threshold concentration is <31.3 μM)	L (low solubility if the threshold concentration is <31.3 μM)
CCCS(=O)(=O)Nc1ccc(F)c(C(=O)c2c[nH]c3ncnc(Nc4cccc(F)c4)c23)c1F [P-1094, Propane-1-sulfonic acid {2,4-difluoro-3-[4-(3-fluoro-phenylamino)-7H-pyrrolo[2,3-d]pyrimidine-5-carbonyl]-phenyl}-amide]	L (low solubility if the threshold concentration is <31.3 μM)	M (moderate solubility if the threshold concentration is 31.3 μM to 250 μM)	L (low solubility if the threshold concentration is <31.3 μM)	L (low solubility if the threshold concentration is <31.3 μM)
CCCS(=O)(=O)Nc1ccc(F)c(C(=O)c2c[nH]c3ncnc(NC4CCN(CC)CC4)c23)c1F [P-1095, Propane-1-sulfonic acid {3-[4-(1-ethyl-piperidin-4-ylamino)-7H-pyrrolo[2,3-d]pyrimidine-5-carbonyl]-2,4-difluoro-phenyl}-amide]	H (high solubility if the threshold concentration is >250 μm)	H (high solubility if the threshold concentration is >250 μm)	H (high solubility if the threshold concentration is >250 μm)	H (high solubility if the threshold concentration is >250 μm)
CCCS(=O)(=O)Nc1ccc(F)c(C(=O)c2c[nH]c3ncnc(Nc4cnn(CC)c4)c23)c1F [P-1099, Propane-1-sulfonic acid {3-[4-(1-ethyl-1H-pyrazol-4-ylamino)-7H-pyrrolo[2,3-d]pyrimidine-5-carbonyl]-2,4-difluoro-phenyl}-amide]	M (moderate solubility if the threshold concentration is 31.3 μM to 250 μM)	M (moderate solubility if the threshold concentration is 31.3 μM to 250 μM)	M (moderate solubility if the threshold concentration is 31.3 μM to 250 μM)	L (low solubility if the threshold concentration is <31.3 μM)
Cc1nn(C)cc1Nc1ncnc2[nH]cc(C(=O)c3c(F)ccc(NS(=O)(=O)c4cc(F)ccc4F)c3F)c12 [P-1143, N-{3-[4-(1,3-Dimethyl-1H-pyrazol-4-ylamino)-7H-pyrrolo[2,3-d]pyrimidine-5-carbonyl]-2,4-difluoro-phenyl}-2,5-difluoro-benzenesulfonamide]	L (low solubility if the threshold concentration is <31.3 μM)	L (low solubility if the threshold concentration is <31.3 μM)	L (low solubility if the threshold concentration is <31.3 μM)	L (low solubility if the threshold concentration is <31.3 μM)
